Measured values reported in patent US20240199613A1 (TAKEDA PHARMACEUTICAL COMPANY LIMITED, priority 2021, published 2024).
Structures can show the parent of a compound that is named as a salt.

What was measured:
[1] = molecular target: human activated kallikrein enzyme (Homo sapiens, UniProt P03952); experiment: Inhibition of activated plasma kallikrein, fluorogenic peptide substrate (PFR-AMC) assay, 500 pM enzyme format; type: biochemical; details: 500 pM activated kallikrein, 300 uM PFR-AMC, 30 min preincubation, 10 min reaction, room temperature; read-out: Primary Dose Response Assay: Average EC50
human activated kallikrein enzyme, sequence (P03952 391-638 limits assumed): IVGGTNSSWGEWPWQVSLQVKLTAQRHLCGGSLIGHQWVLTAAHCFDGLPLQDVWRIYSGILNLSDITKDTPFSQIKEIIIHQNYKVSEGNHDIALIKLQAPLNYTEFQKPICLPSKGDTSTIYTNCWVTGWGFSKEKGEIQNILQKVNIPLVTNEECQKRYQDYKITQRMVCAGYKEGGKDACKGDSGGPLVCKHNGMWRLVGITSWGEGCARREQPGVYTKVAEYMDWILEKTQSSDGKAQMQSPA
human activated kallikrein enzyme, sequence (P03952 20-390 partner limits assumed): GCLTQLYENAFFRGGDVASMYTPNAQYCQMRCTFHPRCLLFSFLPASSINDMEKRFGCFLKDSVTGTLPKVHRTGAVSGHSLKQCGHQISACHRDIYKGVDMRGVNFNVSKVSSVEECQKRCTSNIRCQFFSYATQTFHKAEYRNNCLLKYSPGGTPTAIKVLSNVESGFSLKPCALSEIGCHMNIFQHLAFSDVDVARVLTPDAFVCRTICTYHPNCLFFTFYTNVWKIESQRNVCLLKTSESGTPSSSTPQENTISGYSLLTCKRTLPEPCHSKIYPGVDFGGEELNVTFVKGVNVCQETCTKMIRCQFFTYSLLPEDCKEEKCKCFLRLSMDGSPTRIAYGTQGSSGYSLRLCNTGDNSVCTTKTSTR
Method in brief: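 500 pM enzyme preincubated 30 min at room temperature with inhibitor in 20 mM Tris pH 7.5, 150 mM NaCl, 1 mM EDTA, 0.1% PEG-400, 0.1% Triton X-100. Reaction started with 300 uM PFR-AMC and run 10 min at room temperature. Fluorescence read at 380 nm excitation/460 nm emission.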

plasma kallikrein = molecular target: T1, plasma kallikrein (Homo sapiens, UniProt P03952); experiment: Neat human plasma assay: contact pathway-activated (FXIIa) plasma, PFR-AMC substrate; type: biochemical; details: citrated human plasma (78% final), 10 nM human FXIIa, 100 μM PFR-AMC, room temperature
T1 construct: from tissue; host or cells: sodium citrate collected human plasma (78% final)
T1 sequence (P03952 391-638 limits assumed): as the sequence (P03952 391-638 limits assumed) above
T1 sequence (P03952 20-390 partner limits assumed): as the sequence (P03952 20-390 partner limits assumed) above
Method in brief: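 Compounds spiked into citrated human or rat plasma (78% final), or plasma taken from orally or IV dosed rats, activated with 10 nM human FXIIa; 100 μM PFR-AMC cleavage read at 360/480 nm for 5 min, room temperature. Rates vs concentration fit to 4-parameter IC50/IC90 equation.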

Compound	EC50 [1]	IC90 (plasma kallikrein)
COc1cc([C@H]2C[C@@H]2c2nccc(C)n2)nc2cc(N3C[C@@H](O)C[C@@H]3c3cn4cc(C5CC5)cc(N5CC(=O)N(C)C5=O)c4n3)ccc12 (relative stereo) [Example 67, rac-1-(6-cyclopropyl-2-((2R,4S)-4-hydroxy-1-(4-methoxy-2-((1S*,2S*)-2-(4-methylpyrimidin-2-yl)cyclopropyl)quinolin-7-yl)pyrrolidin-2-yl)imidazo[1,2-a]pyridin-8-yl)-3-methylimidazolidine-2,4-dione]	1 to 10 nM	400 to 1500 nM
Cc1ccnc([C@H]2C[C@@H]2c2cc(N3CC4(COC4)C3)c3ccc(OCc4cc5cc(C6CC6)cc(N6CC(=O)N(C)C6=O)n5n4)cc3n2)n1 [Example 108, 1-(5-cyclopropyl-2-(((2-((1S,2S)-2-(4-methylpyrimidin-2-yl)cyclopropyl)-4-(2-oxa-6-azaspiro[3.3]heptan-6-yl)quinolin-7-yl)oxy)methyl)pyrazolo[1,5-a]pyridin-7-yl)-3-methyl imidazolidine-2,4-dione]	≤ 1 nM	≤ 400 nM
Cc1ccnc([C@H]2C[C@@H]2c2ccc3ccc(NCc4cn5cc(C6CC6)nc(N6CC(=O)N(C)C6=O)c5n4)cc3n2)n1 (racemic) [Example 106, rac-1-(6-cyclopropyl-2-(((2-((1S*,2S*)-2-(4-methylpyrimidin-2-yl)cyclopropyl)quinolin-7-yl)amino)methyl)imidazo[1,2-a]pyrazin-8-yl)-3-methylimidazolidine-2,4-dione]	1 to 10 nM	1500 to 10000 nM
Cc1ccnc([C@H]2C[C@@H]2c2cc(-n3cncn3)c3ccc(NCc4cn5cc(C6CC6)cc(N6CC(=O)N(C)C6=O)c5n4)cc3n2)n1 (racemic) [Example 26, rac-1-(6-cyclopropyl-2-(((2-((1S*,2S*)-2-(4-methylpyrimidin-2-yl)cyclopropyl)-4-(1H-1,2,4-triazol-1-yl)quinolin-7-yl)amino)methyl)imidazo[1,2-a]pyridin-8-yl)-3-methylimidazolidine-2,4-dione]	1 to 10 nM	1500 to 10000 nM
Cc1ccnc([C@H]2C[C@@H]2C2=CS(=O)(=O)c3ccc(NCc4cn5cc(C6CC6)cc(N6CC(=O)N(C)C6=O)c5n4)cc3N2)n1 (racemic) [Example 61, rac-1-(6-cyclopropyl-2-(((3-((1S*,2S*)-2-(4-methylpyrimidin-2-yl)cyclopropyl)-1,1-dioxido-4H-benzo[b][1,4]thiazin-6-yl)amino)methyl)imidazo[1,2-a]pyridin-8-yl)-3-methylimidazolidine-2,4-dione]	≤ 1 nM	400 to 1500 nM
Cc1ccnc([C@H]2C[C@@H]2C2=CS(=O)(=O)c3cnc(NCc4cn5cc(C6CC6)cc(N6CC(=O)N(C)C6=O)c5n4)cc3N2)n1 (racemic) [Example 79, rac-1-(6-cyclopropyl-2-(((2-((1S*,2S*)-2-(4-methylpyrimidin-2-yl)cyclopropyl)-4,4-dioxido-1H-pyrido[3,4-b][1,4]thiazin-7-yl)amino)methyl)imidazo[1,2-a]pyridin-8-yl)-3-methylimidazolidine-2,4-dione]	≤ 1 nM	≤ 400 nM
Cc1ccnc([C@H]2C[C@@H]2C2=NS(=O)(=O)c3cc(Cl)c(NCc4cn5cc(C6CC6)ccc5n4)cc3N2)n1 (racemic) [Example 89, rac-7-chloro-6-(((6-cyclopropylimidazo[1,2-a]pyridin-2-yl)methyl)amino)-3-((1S*,2S*)-2-(4-methylpyrimidin-2-yl)cyclopropyl)-4H-benzo[e][1,2,4]thiadiazine 1,1-dioxide]	≤ 1 nM	1500 to 10000 nM
Cc1ccnc([C@H]2C[C@@H]2c2cc(N3CCOCC3)c3ccc(NCc4cn5cc(C6CC6)cc(N6CC(=O)N(C)C6=O)c5n4)cc3n2)n1 (racemic) [Example 40, rac-1-(6-cyclopropyl-2-((1S*,2S)-2-(4-methylpyrimidin-2-yl)cyclopropyl)-4-morpholinoquinolin-7-yl)amino)methyl)imidazo[1,2-a]pyridin-8-yl)-3-methylimidazolidine-2,4-dione]	≤ 1 nM	≤ 400 nM
Cc1ccnc(C2CC2c2cc(=O)c3ccc(NCc4cn5cc(C6CC6)cc(N6CC(=O)N(C)C6=O)c5n4)cc3[nH]2)n1 (single isomer, unassigned) [Example 12, 1-(6-cyclopropyl-2-(((2-(2-(4-methylpyrimidin-2-yl)cyclopropyl)-4-oxo-1,4-dihydroquinolin-7-yl)amino)methyl)imidazo[1,2-a]pyridin-8-yl)-3-methylimidazolidine-2,4-dione]	≤ 1 nM	400 to 1500 nM
Cc1ccnc([C@H]2C[C@@H]2c2cc(OCCO)c3ccc(NCc4cn5cc(C6CC6)cc(N6CC(=O)N(C)C6=O)c5n4)cc3n2)n1 (racemic) [Example 69, rac-1-(6-cyclopropyl-2-(((4-(2-hydroxyethoxy)-2-((1S*,2S*)-2-(4-methylpyrimidin-2-yl)cyclopropyl)quinolin-7-yl)amino)methyl)imidazo[1,2-a]pyridin-8-yl)-3-methylimidazolidine-2,4-dione]	≤ 1 nM	400 to 1500 nM
Cc1ccnc([C@H]2C[C@@H]2C2=NS(=O)(=O)c3ccc(NCc4cn5cc(C6CC6)ccc5n4)cc3N2)n1 (racemic) [Example 64, rac-6-(((6-cyclopropylimidazo[1,2-a]pyridin-2-yl)methyl)amino)-3-((1S*,2S*)-2-(4-methylpyrimidin-2-yl)cyclopropyl)-4H-benzo[e][1,2,4]thiadiazine 1,1-dioxide]	≤ 1 nM	400 to 1500 nM
Cc1ccnc([C@H]2C[C@@H]2c2cc(-n3ccnc3)c3ccc(NCc4cn5cc(C6CC6)cc(N6CC(=O)N(C)C6=O)c5n4)cc3n2)n1 (racemic) [Example 25, rac-1-(2-(((4-(1H-imidazol-1-yl)-2-((1S*,2S*)-2-(4-methylpyrimidin-2-yl)cyclopropyl)quinolin-7-yl)amino)methyl)-6-cyclopropylimidazo[1,2-a]pyridin-8-yl)-3-methylimidazolidine-2,4-dione]	≤ 1 nM	1500 to 10000 nM
Cc1ccnc([C@H]2C[C@@H]2c2cc(C(C)(C)O)c3ccc(NCc4cn5cc(C6CC6)cc(N6CC(=O)N(C)C6=O)c5n4)cc3n2)n1 (racemic) [Example 95, rac-1-(6-cyclopropyl-2-(((4-(2-hydroxypropan-2-yl)-2-((1S*,2S*)-2-(4-methylpyrimidin-2-yl)cyclopropyl)quinolin-7-yl)amino)methyl)imidazo[1,2-a]pyridin-8-yl)-3-methylimidazolidine-2,4-dione]	≤ 1 nM	400 to 1500 nM
Cc1ccnc([C@H]2C[C@@H]2c2cc(N3CC4(COC4)C3)c3ccc(NC(C)c4cn5cc(C6CC6)cc(N6CC(=O)N(C)C6=O)c5n4)cc3n2)n1 (stereo partly drawn) [Example 99, 1-(6-cyclopropyl-2-(1-((2-((1S,2S)-2-(4-methylpyrimidin-2-yl)cyclopropyl)-4-(2-oxa-6-azaspiro[3.3]heptan-6-yl)quinolin-7-yl)amino)ethyl)imidazo[1,2-a]pyridin-8-yl)-3-methylimidazolidine-2,4-dione]	1 to 10 nM	400 to 1500 nM
Cc1ccnc([C@H]2C[C@@H]2c2cc(N3CC(O)C3)c3ccc(NCc4cn5cc(C6CC6)cc(N6CC(=O)N(C)C6=O)c5n4)cc3n2)n1 [Example 31, 1-(6-cyclopropyl-2-(((4-(3-hydroxyazetidin-1-yl)-2-((1S,2S)-2-(4-methylpyrimidin-2-yl)cyclopropyl)quinolin-7-yl)amino)methyl)imidazo[1,2-a]pyridin-8-yl)-3-methylimidazolidine-2,4-dione]	≤ 1 nM	≤ 400 nM
Cc1ccnc([C@H]2C[C@@H]2C2=NS(=O)(=O)c3ccc(N(C)Cc4cn5cc(C6CC6)ccc5n4)cc3N2)n1 (racemic) [Example 80, rac-6-(((6-cyclopropylimidazo[1,2-a]pyridin-2-yl)methyl)(methyl)amino)-3-((1S*,2S*)-2-(4-methylpyrimidin-2-yl)cyclopropyl)-4H-benzo[e][1,2,4]thiadiazine 1,1-dioxide]	≤ 1 nM	1500 to 10000 nM
Cc1ccnc([C@H]2C[C@@H]2c2nc3cc(NCc4cn5cc(C6CC6)cc(N6CC(=O)N(C)C6=O)c5n4)ncc3c(=O)[nH]2)n1 (racemic) [Example 7, rac-1-(6-cyclopropyl-2-(((2-((1S*,2S*)-2-(4-methylpyrimidin-2-yl)cyclopropyl)-4-oxo-3,4-dihydropyrido[4,3-d]pyrimidin-7-yl)amino)methyl)imidazo[1,2-a]pyridin-8-yl)-3-methylimidazolidine-2,4-dione]	≤ 1 nM	400 to 1500 nM
Cc1ccnc([C@H]2C[C@@H]2C2=NS(=O)(=O)c3ccc(NCc4cn5cc(C6CC6)ccc5n4)cc3N2)n1 (single isomer, unassigned) [Example 65]	≤ 1 nM	400 to 1500 nM
Cc1ccnc([C@H]2C[C@@H]2c2ccc3cnc(NCc4cn5cc(C6CC6)cc(N6CC(=O)N(C)C6=O)c5n4)cc3n2)n1 (racemic) [Example 15, rac-1-(6-cyclopropyl-2-(((2-((1S*,2S*)-2-(4-methylpyrimidin-2-yl)cyclopropyl)-1,6-naphthyridin-7-yl)amino)methyl)imidazo[1,2-a]pyridin-8-yl)-3-methylimidazolidine-2,4-dione formic acid salt]	1 to 10 nM	1500 to 10000 nM
